Patent US9084828B2, “Oligomer-protein tyrosine kinase inhibitor conjugates” (Nektar Therapeutics, priority 2009, dated 2015)

Legend:
Type in all cases: biochemical
[1] = molecular target: AKT3 (Homo sapiens, UniProt Q9Y243); assay: Activity against various protein tyrosine kinases: AKT3
[2] = molecular target: Erk2 (Homo sapiens, UniProt P28482); assay: Activity against various protein tyrosine kinases: Erk2
[3] = molecular target: T1, PKCz (Homo sapiens, UniProt Q05513); assay: Activity against various protein tyrosine kinases: PKCz
T1 sequence (Q05513 1-592): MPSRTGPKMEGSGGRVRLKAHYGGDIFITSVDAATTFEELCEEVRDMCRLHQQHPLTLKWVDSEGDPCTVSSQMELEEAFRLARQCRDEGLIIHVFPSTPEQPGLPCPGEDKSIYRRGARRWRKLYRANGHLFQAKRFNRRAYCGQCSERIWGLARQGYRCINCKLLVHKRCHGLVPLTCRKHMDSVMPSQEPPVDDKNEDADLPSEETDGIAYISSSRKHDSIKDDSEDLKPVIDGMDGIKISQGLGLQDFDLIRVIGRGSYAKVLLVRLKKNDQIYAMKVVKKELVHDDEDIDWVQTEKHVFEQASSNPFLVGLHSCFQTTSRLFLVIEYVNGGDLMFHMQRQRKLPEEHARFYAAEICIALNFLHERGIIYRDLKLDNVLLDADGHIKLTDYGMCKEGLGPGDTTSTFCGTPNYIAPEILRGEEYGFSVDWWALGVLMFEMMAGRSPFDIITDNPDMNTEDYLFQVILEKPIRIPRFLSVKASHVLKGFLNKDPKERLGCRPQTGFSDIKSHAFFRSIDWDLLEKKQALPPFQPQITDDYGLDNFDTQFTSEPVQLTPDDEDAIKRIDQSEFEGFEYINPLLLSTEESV

[4] = molecular target: FGFR2 (Homo sapiens, UniProt P21802); assay: Activity against various protein tyrosine kinases: FGFR2
[5] = molecular target: T2, Flt3(D835Y) (Homo sapiens, UniProt P36888, D835Y); assay: Activity against various protein tyrosine kinases: Flt3(D835Y)
T2 sequence (P36888 27-993 D835Y): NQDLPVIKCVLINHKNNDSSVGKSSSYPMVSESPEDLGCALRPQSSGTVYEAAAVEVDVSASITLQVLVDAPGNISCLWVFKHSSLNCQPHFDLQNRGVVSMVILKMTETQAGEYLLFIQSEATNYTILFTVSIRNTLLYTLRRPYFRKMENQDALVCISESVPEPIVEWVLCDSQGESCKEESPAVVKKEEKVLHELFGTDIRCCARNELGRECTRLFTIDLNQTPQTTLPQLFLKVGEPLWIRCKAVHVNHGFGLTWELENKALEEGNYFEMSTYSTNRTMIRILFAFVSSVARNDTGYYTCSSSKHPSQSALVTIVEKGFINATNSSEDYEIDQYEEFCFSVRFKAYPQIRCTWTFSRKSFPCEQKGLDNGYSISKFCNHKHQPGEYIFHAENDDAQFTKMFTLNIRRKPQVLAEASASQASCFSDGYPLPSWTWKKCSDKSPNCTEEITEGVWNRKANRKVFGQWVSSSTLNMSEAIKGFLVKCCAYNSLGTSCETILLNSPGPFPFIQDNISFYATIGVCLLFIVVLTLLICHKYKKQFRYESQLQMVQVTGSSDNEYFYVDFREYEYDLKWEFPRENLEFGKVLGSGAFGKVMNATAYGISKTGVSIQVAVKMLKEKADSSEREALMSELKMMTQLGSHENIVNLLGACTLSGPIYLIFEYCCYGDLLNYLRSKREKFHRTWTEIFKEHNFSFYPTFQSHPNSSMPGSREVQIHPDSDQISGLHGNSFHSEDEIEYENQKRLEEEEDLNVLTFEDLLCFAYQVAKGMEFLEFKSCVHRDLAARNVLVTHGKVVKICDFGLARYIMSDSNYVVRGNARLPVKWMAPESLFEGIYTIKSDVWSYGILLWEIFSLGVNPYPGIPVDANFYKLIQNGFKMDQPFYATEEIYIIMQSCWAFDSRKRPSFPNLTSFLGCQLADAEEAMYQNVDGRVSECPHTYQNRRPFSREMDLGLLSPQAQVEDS
Experimental: Using techniques know those of ordinary skill in the art, compounds were tested for activity against various protein tyrosine kinases.

[6] = molecular target: FGFR3 (Homo sapiens, UniProt P22607); assay: Activity against various protein tyrosine kinases: FGFR3
[7] = molecular target: AKT1 (Homo sapiens, UniProt P31749); assay: Activity against various protein tyrosine kinases: AKT1
[8] = molecular target: T3, PRAK (Homo sapiens, UniProt Q8IW41); assay: Activity against various protein tyrosine kinases: PRAK
T3 sequence (Q8IW41 1-473): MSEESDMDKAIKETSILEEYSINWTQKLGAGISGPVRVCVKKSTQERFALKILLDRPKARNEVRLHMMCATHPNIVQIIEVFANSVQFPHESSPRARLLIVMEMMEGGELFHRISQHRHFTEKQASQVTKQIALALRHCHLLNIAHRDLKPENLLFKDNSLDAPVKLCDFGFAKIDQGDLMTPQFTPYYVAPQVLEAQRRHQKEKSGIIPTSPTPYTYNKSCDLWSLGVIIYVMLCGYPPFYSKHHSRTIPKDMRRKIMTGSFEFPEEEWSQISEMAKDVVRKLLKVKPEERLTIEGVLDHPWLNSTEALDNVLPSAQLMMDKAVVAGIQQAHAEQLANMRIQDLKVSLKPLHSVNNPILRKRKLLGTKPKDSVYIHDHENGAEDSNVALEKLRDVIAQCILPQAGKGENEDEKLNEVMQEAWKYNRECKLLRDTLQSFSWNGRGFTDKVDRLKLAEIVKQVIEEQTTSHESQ

[9] = molecular target: INSR (Homo sapiens, UniProt P06213); assay: Activity against various protein tyrosine kinases: INSR
[10] = molecular target: FGFR2(N549H) (Homo sapiens, UniProt P21802, N549H); assay: Activity against various protein tyrosine kinases: FGFR2(N549H)
[11] = molecular target: p38a (Homo sapiens, UniProt Q16539); assay: Activity against various protein tyrosine kinases: p38a
[12] = molecular target: FGFR4 (Homo sapiens, UniProt P22455); assay: Activity against various protein tyrosine kinases: FGFR4
[13] = molecular target: MAPKAPK3 (Homo sapiens, UniProt Q16644); assay: Activity against various protein tyrosine kinases: MAPKAPK3
Sequence of MAPKAPK3 (Q16644 whole entry, species assumed): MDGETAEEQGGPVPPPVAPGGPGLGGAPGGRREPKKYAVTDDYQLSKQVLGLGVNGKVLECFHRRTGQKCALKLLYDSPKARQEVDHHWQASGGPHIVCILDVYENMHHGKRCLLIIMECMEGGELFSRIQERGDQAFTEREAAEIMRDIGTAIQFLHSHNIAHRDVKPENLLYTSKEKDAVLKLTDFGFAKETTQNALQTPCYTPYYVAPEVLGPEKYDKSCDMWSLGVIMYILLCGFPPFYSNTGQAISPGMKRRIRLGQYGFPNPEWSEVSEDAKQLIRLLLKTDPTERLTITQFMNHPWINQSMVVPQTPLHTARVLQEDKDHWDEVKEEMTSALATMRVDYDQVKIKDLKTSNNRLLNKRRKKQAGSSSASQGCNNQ

Sequence of FGFR4 (P22455 22-802, species assumed): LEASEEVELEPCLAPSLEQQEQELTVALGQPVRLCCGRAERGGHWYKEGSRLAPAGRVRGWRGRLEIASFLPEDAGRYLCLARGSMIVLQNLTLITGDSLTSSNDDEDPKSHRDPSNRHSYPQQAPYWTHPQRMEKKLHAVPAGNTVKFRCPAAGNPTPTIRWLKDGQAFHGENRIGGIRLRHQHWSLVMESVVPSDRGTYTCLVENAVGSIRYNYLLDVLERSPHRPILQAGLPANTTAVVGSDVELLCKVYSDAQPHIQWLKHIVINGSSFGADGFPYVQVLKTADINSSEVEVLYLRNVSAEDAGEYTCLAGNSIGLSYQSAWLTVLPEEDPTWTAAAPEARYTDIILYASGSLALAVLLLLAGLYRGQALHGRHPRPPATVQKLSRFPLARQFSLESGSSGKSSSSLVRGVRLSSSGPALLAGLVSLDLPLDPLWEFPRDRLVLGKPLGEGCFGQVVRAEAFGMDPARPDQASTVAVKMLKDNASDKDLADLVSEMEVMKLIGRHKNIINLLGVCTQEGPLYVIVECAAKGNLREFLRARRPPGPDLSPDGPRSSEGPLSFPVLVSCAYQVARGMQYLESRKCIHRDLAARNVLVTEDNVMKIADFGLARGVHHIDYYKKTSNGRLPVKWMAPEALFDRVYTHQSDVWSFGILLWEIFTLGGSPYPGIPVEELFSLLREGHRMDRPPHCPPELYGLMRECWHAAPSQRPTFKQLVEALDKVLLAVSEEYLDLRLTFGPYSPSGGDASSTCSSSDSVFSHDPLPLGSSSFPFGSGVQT
Sequence of FGFR3 (P22607 23-806, species assumed): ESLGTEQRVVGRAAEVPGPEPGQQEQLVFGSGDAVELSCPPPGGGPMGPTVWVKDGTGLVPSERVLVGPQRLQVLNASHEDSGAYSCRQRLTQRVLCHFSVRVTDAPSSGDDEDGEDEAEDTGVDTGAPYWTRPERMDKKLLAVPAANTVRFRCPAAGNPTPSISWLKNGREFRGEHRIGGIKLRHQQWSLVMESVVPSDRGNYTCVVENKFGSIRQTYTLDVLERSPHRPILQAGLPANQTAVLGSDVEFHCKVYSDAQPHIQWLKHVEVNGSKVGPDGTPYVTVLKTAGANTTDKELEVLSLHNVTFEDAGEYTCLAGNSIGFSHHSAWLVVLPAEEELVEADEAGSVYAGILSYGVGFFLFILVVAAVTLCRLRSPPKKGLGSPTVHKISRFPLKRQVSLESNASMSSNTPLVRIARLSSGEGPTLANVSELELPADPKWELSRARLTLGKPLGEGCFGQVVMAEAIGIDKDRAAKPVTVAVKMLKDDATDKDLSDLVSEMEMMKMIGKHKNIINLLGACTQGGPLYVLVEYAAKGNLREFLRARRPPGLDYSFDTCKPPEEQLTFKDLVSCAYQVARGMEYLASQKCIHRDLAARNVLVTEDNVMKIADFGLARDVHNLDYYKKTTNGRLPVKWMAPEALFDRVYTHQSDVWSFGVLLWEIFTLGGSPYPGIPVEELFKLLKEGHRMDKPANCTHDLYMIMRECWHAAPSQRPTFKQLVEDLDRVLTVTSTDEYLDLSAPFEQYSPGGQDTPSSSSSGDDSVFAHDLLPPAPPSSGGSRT
Sequence of FGFR2(N549H) (P21802 22-821 N549H, species assumed): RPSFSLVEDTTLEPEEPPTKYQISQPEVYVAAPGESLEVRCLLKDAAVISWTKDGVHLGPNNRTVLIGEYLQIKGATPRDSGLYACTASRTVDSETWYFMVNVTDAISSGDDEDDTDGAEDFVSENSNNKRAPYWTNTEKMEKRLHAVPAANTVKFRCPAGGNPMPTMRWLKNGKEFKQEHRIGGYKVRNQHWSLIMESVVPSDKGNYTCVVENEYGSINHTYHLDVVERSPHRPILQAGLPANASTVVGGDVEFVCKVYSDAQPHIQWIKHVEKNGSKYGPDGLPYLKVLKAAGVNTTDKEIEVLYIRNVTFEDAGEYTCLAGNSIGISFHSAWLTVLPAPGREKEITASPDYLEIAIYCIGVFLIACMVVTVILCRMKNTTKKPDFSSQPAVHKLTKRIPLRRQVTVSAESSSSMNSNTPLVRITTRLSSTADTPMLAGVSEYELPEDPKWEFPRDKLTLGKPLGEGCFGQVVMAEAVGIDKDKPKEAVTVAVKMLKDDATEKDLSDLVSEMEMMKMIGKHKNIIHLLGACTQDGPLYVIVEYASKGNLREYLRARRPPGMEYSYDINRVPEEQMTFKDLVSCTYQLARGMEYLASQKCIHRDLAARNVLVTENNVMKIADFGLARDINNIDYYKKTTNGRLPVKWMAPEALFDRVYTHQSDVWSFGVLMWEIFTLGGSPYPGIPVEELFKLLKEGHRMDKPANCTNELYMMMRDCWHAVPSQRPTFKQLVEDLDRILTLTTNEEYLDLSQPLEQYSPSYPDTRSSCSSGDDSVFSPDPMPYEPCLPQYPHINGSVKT
Sequence of p38a (Q16539 whole entry): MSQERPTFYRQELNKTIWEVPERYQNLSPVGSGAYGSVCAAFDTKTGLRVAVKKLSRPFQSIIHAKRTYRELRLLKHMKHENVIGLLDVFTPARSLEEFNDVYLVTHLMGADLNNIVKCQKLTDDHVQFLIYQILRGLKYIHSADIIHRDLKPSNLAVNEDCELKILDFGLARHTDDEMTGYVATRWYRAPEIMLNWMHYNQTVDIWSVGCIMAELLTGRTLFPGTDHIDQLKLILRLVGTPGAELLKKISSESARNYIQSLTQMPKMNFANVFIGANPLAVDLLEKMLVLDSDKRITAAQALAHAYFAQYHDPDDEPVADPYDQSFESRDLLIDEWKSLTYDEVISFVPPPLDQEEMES
Sequence of INSR (P06213 28-1382, species assumed): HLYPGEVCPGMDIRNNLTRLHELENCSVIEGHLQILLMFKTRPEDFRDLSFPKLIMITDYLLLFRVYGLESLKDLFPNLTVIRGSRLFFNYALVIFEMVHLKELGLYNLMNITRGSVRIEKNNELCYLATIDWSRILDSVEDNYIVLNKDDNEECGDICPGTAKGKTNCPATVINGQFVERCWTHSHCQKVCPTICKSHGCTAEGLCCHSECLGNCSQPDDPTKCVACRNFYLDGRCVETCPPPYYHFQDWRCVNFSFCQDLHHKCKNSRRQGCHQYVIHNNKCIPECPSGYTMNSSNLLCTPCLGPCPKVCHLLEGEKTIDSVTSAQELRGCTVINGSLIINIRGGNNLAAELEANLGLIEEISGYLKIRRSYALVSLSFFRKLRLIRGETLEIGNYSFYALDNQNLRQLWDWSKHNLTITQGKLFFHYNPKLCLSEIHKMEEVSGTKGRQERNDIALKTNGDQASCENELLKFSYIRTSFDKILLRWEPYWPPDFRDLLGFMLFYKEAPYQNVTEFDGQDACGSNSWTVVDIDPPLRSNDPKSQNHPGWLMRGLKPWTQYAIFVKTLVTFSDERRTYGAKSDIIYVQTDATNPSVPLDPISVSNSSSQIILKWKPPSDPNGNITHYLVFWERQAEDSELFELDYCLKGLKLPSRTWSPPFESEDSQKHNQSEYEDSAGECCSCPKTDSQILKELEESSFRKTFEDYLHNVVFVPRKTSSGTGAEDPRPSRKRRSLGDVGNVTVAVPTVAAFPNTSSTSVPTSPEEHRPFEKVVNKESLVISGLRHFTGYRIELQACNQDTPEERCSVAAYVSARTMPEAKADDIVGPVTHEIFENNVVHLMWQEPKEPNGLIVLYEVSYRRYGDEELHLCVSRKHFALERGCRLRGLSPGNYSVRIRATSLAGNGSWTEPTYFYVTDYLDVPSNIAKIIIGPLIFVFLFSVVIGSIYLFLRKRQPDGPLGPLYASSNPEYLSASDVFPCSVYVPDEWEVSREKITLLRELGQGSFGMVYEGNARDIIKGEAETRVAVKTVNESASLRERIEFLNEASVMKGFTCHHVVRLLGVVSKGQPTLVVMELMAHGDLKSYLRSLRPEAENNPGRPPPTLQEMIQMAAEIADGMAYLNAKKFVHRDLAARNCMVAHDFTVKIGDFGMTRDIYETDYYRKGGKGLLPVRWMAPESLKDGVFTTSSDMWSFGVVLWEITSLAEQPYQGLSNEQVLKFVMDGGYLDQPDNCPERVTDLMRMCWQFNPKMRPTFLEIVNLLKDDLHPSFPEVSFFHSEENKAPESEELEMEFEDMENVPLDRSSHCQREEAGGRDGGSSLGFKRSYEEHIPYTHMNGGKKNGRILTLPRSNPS
Sequence of AKT1 (P31749 whole entry, species assumed): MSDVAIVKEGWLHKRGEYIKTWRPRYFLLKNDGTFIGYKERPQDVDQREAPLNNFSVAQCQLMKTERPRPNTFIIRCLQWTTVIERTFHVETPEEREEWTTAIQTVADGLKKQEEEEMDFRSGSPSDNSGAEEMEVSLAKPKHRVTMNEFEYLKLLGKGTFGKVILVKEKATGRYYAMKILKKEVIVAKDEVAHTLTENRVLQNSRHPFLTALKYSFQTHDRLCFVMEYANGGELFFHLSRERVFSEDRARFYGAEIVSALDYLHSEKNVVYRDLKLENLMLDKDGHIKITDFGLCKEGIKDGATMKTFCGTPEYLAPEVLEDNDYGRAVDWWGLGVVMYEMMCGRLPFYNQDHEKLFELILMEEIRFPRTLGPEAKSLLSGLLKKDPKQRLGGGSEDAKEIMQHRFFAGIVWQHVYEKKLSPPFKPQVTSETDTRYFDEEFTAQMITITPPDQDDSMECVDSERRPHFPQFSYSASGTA
Sequence of FGFR2 (P21802 22-821, species assumed): as the sequence (P21802 22-821 N549H, species assumed) above, with H528N counted along it

Compound	% Inhibition at 10 nM [1]	% Inhibition at 1 μM [1]	% Inhibition at 10 nM [2]	% Inhibition at 1 μM [2]	% Inhibition at 10 nM [3]	% Inhibition at 1 μM [3]	% Inhibition at 10 nM [4]	% Inhibition at 1 μM [4]	% Inhibition at 10 nM [5]	% Inhibition at 1 μM [5]	% Inhibition at 10 nM [6]	% Inhibition at 1 μM [6]	% Inhibition at 10 nM [7]	% Inhibition at 1 μM [7]	% Inhibition at 10 nM [8]	% Inhibition at 1 μM [8]	% Inhibition at 10 nM [9]	% Inhibition at 1 μM [9]	% Inhibition at 10 nM [10]	% Inhibition at 1 μM [10]	other results
COCCOCCOCCNC(=O)OCCN1CCN(c2cc(Nc3ncc(C(=O)Nc4c(C)cccc4Cl)s3)nc(C)n2)CC1 [mPEG3-NHCOO-Dasatinib]	0%	−1%	6%	11%	−12%	−13%	−2%	38%	6%	10%	3%	11%	7%	0%	6%	4%	1%	−1%	7%	75%	% Inhibition at 10 nM [11]: 6%; % Inhibition at 1 μM [11]: 81%; % Inhibition at 10 nM [12]: 3%; % Inhibition at 1 μM [12]: 6%; % Inhibition at 10 nM [13]: 5%; % Inhibition at 1 μM [13]: 3%
COCCOCCOCCOCCOCCOCCOCCNC(=O)OCCN1CCN(c2cc(Nc3ncc(C(=O)Nc4c(C)cccc4Cl)s3)nc(C)n2)CC1 [mPEG7-NHCOO-Dasatinib]	−3%	−2%	3%	2%	5%	−9%	5%	35%	3%	7%	2%	10%	−1%	0%	8%	0%	2%	3%	5%	63%	% Inhibition at 10 nM [11]: 5%; % Inhibition at 1 μM [11]: 74%; % Inhibition at 10 nM [12]: 0%; % Inhibition at 1 μM [12]: 2%; % Inhibition at 10 nM [13]: 1%; % Inhibition at 1 μM [13]: 0%
